Source: patent US10695282B2, “Functionalized transition metal dichalcogenides and composition for antioxidation containing the same” (AMOREPACIFIC CORPORATION, priority 2017, dated 2020)

Assays:
[1] = Photostability of antioxidant activity under solar simulator (ABTS assay); format: physicochemical; details: after 3 hours, FIG. 9B
[2] = ABTS assay, antioxidant activity of TMDs functionalized in aqueous solution; format: biochemical; details: TMDs functionalized with PCL-b-PEO in aqueous solution; absorbance change at 734 nm after 12 hours; FIG. 9A; read-out: IC50 (ABTS radical scavenging)
Experimental: Specifically, the antioxidant activity of four types of TMDs (MoS2, WS2, MoSe2, and WSe2) functionalized with an amphiphilic block polymer compound in an aqueous solution and Trolox (vitamin E) were measured by an ABTS (2,2′-azino-bis-(3-ethylbenzothiazoline-6-sulfonic acid)) assay.
Specifically, 7 mM 2,2′-azino-bis-(3-ethylbenzothiazoline-6-sulfonic acid) (ABTS) and 2.45 mM potassium persulfate were mixed to make the final concentration and left in a dark place at room temperature for 24 hours. Then, the mixture was diluted with distilled water so that the absorbance value at 734 nm was […]. 100 μl of the sample of each concentration was added to 100 μl of the diluted ABTS radical solution, followed by mixing. After 12 hours, the change of absorbance was measured. The same amount of Trolox as a standard material was added for measurement.

antioxidant activity remaining under light [1]: 50%
IC50 [2]: 11.7 µM
SMILES: Cc1c(C)c2c(c(C)c1O)CCC(C)(C(=O)O)O2 (centres unmarked) [Trolox]
